Assay results: patent US4913891A, “Positron emitter labeled enzyme inhibitors” (The United States of America as represented by the United …, priority 1987, dated 1990)
Like-named read-outs stand apart in the source and are kept apart here.

Tests used:
[1] = Integrated plasma activity for the 30-minute period after tracer injection; type: in vivo, human; conditions: 30-minute period after injection
Source text: Integrated plasma activity
for the 30-minute time period after injection is also presented.

MAO A = target: T1, MAO A (Mus musculus, UniProt Q64133); conditions: for Effect of cross pretreatment on tracer distribution: mice pretreated with unlabeled L-deprenyl 10 mg/kg i.p. one hour before tracer
T1 sequence (Q64133 1-526): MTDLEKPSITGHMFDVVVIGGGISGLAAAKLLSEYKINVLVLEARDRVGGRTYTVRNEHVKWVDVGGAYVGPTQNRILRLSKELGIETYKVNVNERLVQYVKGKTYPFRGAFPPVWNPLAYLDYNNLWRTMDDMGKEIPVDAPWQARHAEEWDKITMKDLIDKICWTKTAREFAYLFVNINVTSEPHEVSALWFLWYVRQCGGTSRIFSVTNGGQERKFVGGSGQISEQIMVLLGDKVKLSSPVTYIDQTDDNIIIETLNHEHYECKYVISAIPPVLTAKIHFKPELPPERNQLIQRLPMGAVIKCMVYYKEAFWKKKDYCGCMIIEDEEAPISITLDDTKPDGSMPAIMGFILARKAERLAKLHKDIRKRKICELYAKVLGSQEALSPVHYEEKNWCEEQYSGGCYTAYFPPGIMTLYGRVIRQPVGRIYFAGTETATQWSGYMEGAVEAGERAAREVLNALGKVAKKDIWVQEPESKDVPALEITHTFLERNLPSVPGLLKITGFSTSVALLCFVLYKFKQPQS
Description: Organs were rapidly removed, blotted free of blood, placed in preweighed counting vials, and counted, along with injection standards, in a sodium iodide well counter.
For the determination of protein binding, freshly excised brains were minced in preweighed centrifuge tubes containing 2 ml 0.4% HClO4 […], weighed, counted, diluted with 1 ml HClO4 and 1 ml methanol, and homogenized by ultrasonication. After centrifugation and decantation, the pellets were resuspended in 3 ml methanol, sonicated, and recentrifuged. The combined supernatants and pellet were counted in a sodium iodide well counter. […] Because of the short half-life of C-11, corrections for the decay of the isotope were calculated to a standard time (end of cyclotron bombardment) for all data.
For pretreatment experiments, mice were given intraperitoneal injections of unlabeled clorgyline or L-deprenyl (10 mg/kg) one hour before the administration of the [^11 C]-tracer.

monoamine oxidase = test: PET in baboons, double injection with intervening high dose of unlabeled compound; type: in vivo; conditions: baboon pretreated with L-deprenyl, some brain regions
[2] = study 5, subject receiving phenelzine plus amphetamine

Compound | Integrated plasma activity ([1]; study 1, normal volunteer) [nCi ml min] | Integrated plasma activity ([1]; study 2, normal volunteer) [nCi ml min] | Integrated plasma activity ([1]; study 3, normal volunteer) [nCi ml min] | Integrated plasma activity ([1]; study 4, normal volunteer) [nCi ml min] | Integrated plasma activity [1, 2] [nCi ml min] | Effect of cross pretreatment on tracer distribution (MAO A) | Effect of cross pretreatment on tracer distribution (MAO A; listed as [^11 C]Clorgyline) | Brain uptake compared with the other tracer (MAO A; mouse brain, control and pretreated mice) | Reduction of brain radioactivity due to tracer after pretreatment (monoamine oxidase) [%]
C#CCN([11CH3])CCCOc1ccc(Cl)cc1Cl [[^11 C]clorgyline] | 2329 | 3206 | 3260 | 3611 | 3965 | did not significantly alter from control | no effect | slight but consistently higher uptake than L-deprenyl | 
C#CCN([11CH3])[C@H](C)Cc1ccccc1 [[^11 C]-L-deprenyl] | 1818 | 2295 | 1018 | 1618 | 2776 |  |  |  | ≤ 80
